The values that follow come from patent US20250197343A1, “CATIONIC LIPID” (TAKEDA PHARMACEUTICAL COMPANY LIMITED, priority 2021, published 2025).

The test system of data set [1] is ICrl:CD1 (ICR) mice. In words: Mouse bioluminescence imaging evaluation (Test Example 1). Format: in vivo. As to conditions: Luc DNA-encapsulated lipid nanoparticles 10 mL/kg i.v. to ICR mice; IVIS total flux 15 minutes after luciferin i.p. The protocol: The Luc DNA-encapsulated lipid nanopatricles obtained in the aforesaid Production Example were intravenously administered to the tails of ICrl:CD1 (ICR) mice (10 mL/kg i.v.). After administration of the lipid particles, luciferin (15 mg/mL) was administered to the mice (10 mL/kg i.p.), which were loaded in an IVIS (in vivo imaging system) apparatus (manufactured by PerkinElmer, Inc.) under isoflurane inhalation anesthesia. Luminescence images of the mice were taken ventrally (in a supine position) 15 minutes after luciferin administration. The luminescence was digitized with the software of IVIS, followed by evaluation using the value of total flux. Higher luminescence means strong expression of the protein encoded by the DNA encapsulate in the lipid particle. In Table 2, higher luminescence is indicated on a scale of A, B and C in order. A represents luminescence of 3.0E+07 or more, B represents luminescence of 1.0E+0.7 or more and less than 3.0E+07, and C represents luminescence of less than 1.0E+07.

Data set [2] in a line: Particle size of Luc DNA-encapsulated lipid nanoparticles. In kind it is physicochemical. Particulars: cationic lipid:DPPC:cholesterol:GM-020=60:10.6:28:1.4 molar ratio. The text has this:
The particle size of the lipid particle (in the composition) can be measured by a known approach. For example, the particle size can be calculated as a Z-average particle size by the cumulant analysis of an autocorrelation function using a particle size measurement apparatus Zetasizer Nano ZS (Malvern Instruments) based on a dynamic light scattering measurement technique. The particle size (average particle size) of the lipid particle (in the composition) is, for example, 10 to 200 nm, preferably 60 to 170 nm.
(§1) A lipid mixture containing a cationic lipid of the Examples shown in Table 2 (cationic lipid:DPPC:cholesterol:GM-020=60:10.6:28:1.4, molar ratio) was dissolved in 90% of EtOH and 10% of water to obtain a 15.0 mg/ml lipid solution. Luciferase (luc) DNA (manufactured by Nature Technology Corp.) was dissolved in a 10 mM MES buffer solution (pH 5.5) to obtain a 0.3 mg/ml nucleic acid solution. The obtained lipid solution and nucleic acid solution were mixed at a flow rate ratio of 3 ml/min:6 ml/min at room temperature using NanoAssemblr (manufactured by Precision NanoSystems Inc.) to obtain a dispersion containing Luc DNA-encapsulated lipid nanoparticles. The obtained dispersion was dialyzed against water at room temperature for 1 hour and against PBS at 4° C. for 23 hours using Slyde-A-Lyzer (molecular weight cutoff: 20 K, Thermo Fischer Scientific Inc.). Subsequently, the dialysate was filtered through a 0.2 µm syringe filter (Iwaki). A 60% solution of sucrose in PBS was added thereto, and the mixture was preserved as a 20% solution of sucrose in PBS at −80° C. Analysis results of particle size and rate of encapsulation of the Luc DNA-encapsulated lipid nanoparticles are also shown in Table 2.

Data set [3] in a line: Rate of encapsulation of Luc DNA in lipid nanoparticles. More on the design: unit: %. Format: physicochemical. Particulars: Luc DNA-encapsulated lipid nanoparticles; cationic lipid:DPPC:cholesterol:GM-020=60:10.6:28:1.4 molar ratio.
From the text: The concentration and rate of encapsulation of the nucleic acid (e.g., siRNA or mRNA) in the composition of the present invention can be measured by a known approach. For example, the nucleic acid is fluorescently labeled using Quant-iT™ RiboGreen® (Invitrogen Corp.), and the fluorescence intensity can be measured to determine the concentration and the rate of encapsulation. The concentration of the nucleic acid in the composition can be calculated using a calibration curve prepared from aqueous nucleic acid solutions having known concentrations. The rate of encapsulation can be calculated on the basis of the difference in fluorescence intensity between the presence and absence of addition of Triton-X 100 (surfactant for disrupting the lipid particle). The concentration of the nucleic acid in the composition refers to the total concentration of a nucleic acid encapsulated in the lipid particle and an unencapsulated nucleic acid. The rate of encapsulation refers to the ratio of the nucleic acid encapsulated in the lipid particle to all nucleic acids in the composition.
as §1

In the case of `CCCCCCCCOC(=O)CCCCC(=O)OCC(COC(=O)CCCN(C)C)(COC(=O)CC(CCCCC)CCCCC)COC(=O)CC(CCCCC)CCCCC` [Example 49, 2-({[4-(Dimethylamino)butanoyl]oxy}methyl)-3-[(3-pentyloctanoyl)oxy]-2-{[(3-pentyloctanoyl)oxy]methyl}propyl octyl hexanedioate], in data set [1], the Luminescence entry was “B (B represents luminescence of 1.0E+0.7 or more and less than 3.0E+07)”. Moreover, in data set [2], the “Particle size (nm)” value amounted to 112.8 nm. Further, the Rate of encapsulation in data set [3] was 96.0.

Turning to `CCCCCCCOC(=O)CCCCC(=O)OCC(COC(=O)CCCCC(=O)OCCCCCCC)(COC(=O)CCN(C)C)COC(=O)CC(CCCCC)CCCCC` [Example 12, 1,1′-(2-{[(N,N-Dimethyl-beta-alanyl)oxy]methyl}-2-{[(3-pentyloctanoyl)oxy]methyl}propane-1,3-diyl) 6,6′-diheptyl dihexanedioate], in data set [1], the Luminescence entry was “C (C represents luminescence of less than 1.0E+07)”. The “Particle size (nm)” value in data set [2] is recorded as 89.5 nm. In data set [3], the Rate of encapsulation is reported as 95.7.

On to `CCCCCC(CCCCC)CC(=O)OCC(COC(=O)CCCCC(=O)OCC(CCC)CCC)(COC(=O)CCCCC(=O)OCC(CCC)CCC)COC(=O)CCCN(CC)C(C)C` [Example 116, 1,1′-(2-[({4-[Ethyl(propan-2-yl)amino]butanoyl}oxy)methyl]-2-{[(3-pentyloctanoyl)oxy]methyl}propane-1,3-diyl) 6,6′-bis(2-propylpentyl) dihexanedioate], for which, in data set [1], the Luminescence result was “B (B represents luminescence of 1.0E+0.7 or more and less than 3.0E+07)”. The “Particle size (nm)” value in data set [2] is on record as 122.0 nm. In addition, in data set [3], the Rate of encapsulation was 97.0.

Take `CCCCCCCOC(=O)CCCCC(=O)OCC(COC(=O)CCCCC(=O)OCCCCCCC)(COC(=O)CCCN(C(C)C)C(C)C)COC(=O)CC(CCCCC)CCCCC` [Example 92, 1,1′-(2-[({4-[di(Propan-2-yl)amino]butanoyl}oxy)methyl]-2-{[(3-pentyloctanoyl)oxy]methyl}propane-1,3-diyl] 6,6′-diheptyl dihexanedioate]: the Luminescence result in data set [1] is “B (B represents luminescence of 1.0E+0.7 or more and less than 3.0E+07)”. The “Particle size (nm)” value in data set [2] turned out to be 125.7 nm. In data set [3], the Rate of encapsulation was 94.1.

Consider `CCCCCCCCCOC(=O)CCCCC(=O)OCC(COC(=O)CCCCC(=O)OCCCCCCCCC)(COC(=O)CCCN(C)C)COC(=O)CC(CCCCC)CCCCC` [Example 44, 1,1′-[2-({[4-(Dimethylamino)butanoyl]oxy}methyl)-2-{[(3-pentyloctanoyl)oxy]methyl}propane-1,3-diyl] 6,6′-dinonyl dihexanedioate], for which the Luminescence result in data set [1] is “A (A represents luminescence of 3.0E+07 or more)”. Besides, in data set [2], the “Particle size (nm)” value stood at 132.3 nm. The Rate of encapsulation in data set [3] turned out to be 96.3.

Consider `CCCCCC(CCCCC)CC(=O)OCC(COC(=O)CCCCC(=O)OCCCC)(COC(=O)CCCN(C)C)COC(=O)CC(CCCCC)CCCCC` [Example 20, Butyl 2-({[4-(dimethylamino)butanoyl]oxy}methyl)-3-[(3-pentyloctanoyl)oxy]-2-{[(3-pentyloctanoyl)oxy]methyl}propyl hexanedioate], for which, in data set [1], the Luminescence entry is “B (B represents luminescence of 1.0E+0.7 or more and less than 3.0E+07)”. Also, the “Particle size (nm)” value in data set [2] is given as 104.2 nm. Also, the Rate of encapsulation in data set [3] came to 97.2.

Take `CCCCCCCCCCOC(=O)CCCCC(=O)OCC(COC(=O)CCCCC(=O)OCCCCCCCCCC)(COC(=O)CCCCC(=O)OCCCCCCCCCC)COC(=O)CCCN(C)C` [Example 42, 1,1′-Didecyl 6,6′-[2-({[6-(dexyloxy)-6-oxohexanoyl]oxy}methyl)-2-({[4-(dimethylamino)butanoyl]oxy}methyl)propane-1,3-diyl] dihexanedioate]: the Luminescence entry in data set [1] is listed as “C (C represents luminescence of less than 1.0E+07)”. Moreover, in data set [2], the “Particle size (nm)” value came out at 114.5 nm. The Rate of encapsulation in data set [3] was 86.2.

On to `CCCCCC(CCCCC)CC(=O)OCC(COC(=O)CCCCCCCCCCC(=O)OC)(COC(=O)CCCCCCCCCCC(=O)OC)COC(=O)CCCN(C)C` [Example 77, 1,1′-[2-({[4-(Dimethylamino)butanoyl]oxy}methyl)-2-{[(3-pentyloctanoyl)oxy]methyl}propane-1,3-diyl] 12,12′-dimethyl didodecanedioate], for which the Luminescence result in data set [1] is “B (B represents luminescence of 1.0E+0.7 or more and less than 3.0E+07)”. Also, the “Particle size (nm)” value in data set [2] is 128.7 nm. Further, the Rate of encapsulation in data set [3] is listed as 73.5.

Turning to `CCCCCC(CCCCC)CC(=O)OCC(COC(=O)CCCCC(=O)OCC(CCCC)CCCC)(COC(=O)CCCCC(=O)OCC(CCCC)CCCC)COC(=O)CCCN(C)C` [Example 117, 1,1′-Bis(2-butylhexyl) 6,6′-[2-({[4-(dimethylamino)butanoyl]oxy}methyl)-2-{[(3-pentyloctanoyl)oxy]methyl}propane-1,3-diyl] dihexanedioate], the Luminescence result in data set [1] was “B (B represents luminescence of 1.0E+0.7 or more and less than 3.0E+07)”. In data set [2], the “Particle size (nm)” value is 161.0 nm. In addition, the Rate of encapsulation in data set [3] worked out at 82.0.

On to `CCCCCCCOC(=O)CCCCC(=O)OCC(COC(=O)CCCCC(=O)OCCCCCCC)(COC(=O)CCCN(C)CCCO)COC(=O)CC(CCCCC)CCCCC` [Example 94, 1,1′-Diheptyl 6,6′-(2-[({4-[(3-hydroxypropyl)(methyl)amino]butanoyl}oxy)methyl]-2-{[(3-pentyloctanoyl)oxy]methyl}propane-1,3-diyl) dihexanedioate], for which, in data set [1], the Luminescence entry is reported as “C (C represents luminescence of less than 1.0E+07)”. Besides, the “Particle size (nm)” value in data set [2] turned out to be 129.4 nm. For the same compound, in data set [3], the Rate of encapsulation amounted to 93.0.

Regarding `CCCCCCOC(=O)CCCCCC(=O)OCC(COC(=O)CCCCCC(=O)OCCCCCC)(COC(=O)CCCN(CC)C(C)C)COC(=O)CC(CCCCC)CCCCC` [Example 102, 1,1′-(2-[({4-[Ethyl(propan-2-yl)amino]butanoyl}oxy)methyl]-2-{[(3-pentyloctanoyl)oxy]methyl}propane-1,3-diyl) 7,7′-dihexyl diheptanedioate], the Luminescence entry in data set [1] was “B (B represents luminescence of 1.0E+0.7 or more and less than 3.0E+07)”. Also, the “Particle size (nm)” value in data set [2] was found to be 139.8 nm. For the same compound, in data set [3], the Rate of encapsulation is given as 91.8.

With `CCCCCC(CCCCC)COC(=O)CCC(=O)OCC(COC(=O)CCCN(C)C)(COC(=O)CC(CCCCC)CCCCC)COC(=O)CC(CCCCC)CCCCC` [Example 96, 2-({[4-(Dimethylamino)butanoyl]oxy}methyl)-3-[(3-pentyloctanoyl)oxy]-2-{[(3-pentyloctanoyl)oxy]methyl}propyl 2-pentylheptyl butanedioate], the Luminescence result in data set [1] is “B (B represents luminescence of 1.0E+0.7 or more and less than 3.0E+07)”. In addition, the “Particle size (nm)” value in data set [2] was 74.2 nm. In addition, the Rate of encapsulation in data set [3] is 98.8.

For the compound `CCCCCCOC(=O)CCCCCC(=O)OCC(COC(=O)CCCCCC(=O)OCCCCCC)(COC(=O)CCCN(C)C)COC(=O)CC(CCCCC)CCCCC` [Example 99, 1,1′-[2-({[4-(Dimethylamino)butanoyl]oxy}methyl)-2-{[(3-pentyloctanoyl)oxy]methyl}propane-1,3-diyl] 7,7′-dihexyl diheptanedioate], the Luminescence entry in data set [1] is listed as “A (A represents luminescence of 3.0E+07 or more)”. For the same compound, the “Particle size (nm)” value in data set [2] is recorded as 153.8 nm. Also, in data set [3], the Rate of encapsulation came out at 92.4.
